Assay results from patent US9561228B2 (Celgene Avilomics Research, Inc., priority 2013, dated 2017).

Legend:
[1] = system: ERK1/2 phosphorylation of p90RSK in A375 cells; test: Detection of total and phosphor-RSK by MSD ELISA (A375); format: cell-based; conditions: Homo sapiens, A-375, read-out: ERK1/ERK2 PRSK A375 EC50
How it was run: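 A375 cells serum-starved overnight in DMEM/0.1% FBS, then treated 2 h at 37° C with compound (1000× DMSO dilutions into medium). Lysates captured on RSK antibody-coated MSD plates; phospho-RSK (Ser380) and total RSK detected with SulfoTag secondary antibodies by electrochemiluminescence.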

[2] = system: ERK1/2 phosphorylation of p90RSK in HT29 cells; test: pRSK MSD Assay in HT29 cells; format: cell-based; conditions: Homo sapiens, HT-29, read-out: ERK1/ERK2 PRSK MSD HT29 EC50
How it was run: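 Serum-starved HT29 cells (0.1% FBS overnight) treated with test compound for 120 min at 37° C, then lysed with protease and phosphatase inhibitors. Phospho-p90RSK quantified by MSD sandwich immunoassay: RSK capture antibody, phospho-RSK detection antibody plus Sulfo-tagged antibody, electrochemiluminescence read.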

| EC50 [1] [nM] | EC50 [2] [nM] | SMILES |
| --- | --- | --- |
| 501 to 999 | 501 to 999 | C=CC(=O)Nc1cc(OCC(=O)N2CCN(C(C)=O)CC2)ccc1Nc1nc(Nc2cc(OC)ncc2OC)ncc1C(F)(F)F [Compound I-415, N-(5-(2-(4-acetylpiperazin-1-yl)-2-oxoethoxy)-2-((2-((2,5-dimethoxypyridin-4-yl)amino)-5-(trifluoromethyl)pyrimidin-4-yl)amino)phenyl)acrylamide] |
| 101 to 500 | 101 to 500 | C=CC(=O)Nc1cc(C)ccc1Nc1nc(Nc2ncc(C(F)(F)F)c(OC)n2)ncc1C(F)(F)F [Compound I-354, N-(2-((2-((4-methoxy-5-(trifluoromethyl)pyrimidin-2-yl)amino)-5-(trifluoromethyl)pyrimidin-4-yl)amino)-5-methylphenyl)acrylamide] |
| < 100 | < 100 | C=CC(=O)Nc1cc(C)c(F)cc1Nc1nc(Nc2nc(OC)ncc2C)ncc1C(F)(F)F [Compound I-377, N-(4-fluoro-2-((2-((2-methoxy-5-methylpyrimidin-4-yl)amino)-5-(trifluoromethyl)pyrimidin-4-yl)amino)-5-methylphenyl)acrylamide] |
| 101 to 500 | 101 to 500 | C=CC(=O)Nc1cc(C)ccc1Nc1nc(Nc2nc(OC)ncc2OC)ncc1C(F)(F)F [Compound I-349, N-(2-((2-((2,5-dimethoxypyrimidin-4-yl)amino)-5-(trifluoromethyl)pyrimidin-4-yl)amino)-5-methylphenyl)acrylamide] |
| < 100 | < 100 | C=CC(=O)Nc1ccccc1Nc1nc(Nc2cc(OC)ncc2C)ncc1C(F)(F)F [Compound I-85, N-(2-((2-((2-Methoxy-5-methylpyridin-4-yl)amino)-5-(trifluoromethyl)pyrimidin-4-yl)amino)phenyl)acrylamide] |
| > 1000 | > 1000 | C=CC(=O)Nc1cc(C)ccc1Nc1nc(NCC2COC2)ncc1C(F)(F)F [Compound I-417, N-(5-methyl-2-((2-((oxetan-3-ylmethyl)amino)-5-(trifluoromethyl)pyrimidin-4-yl)amino)phenyl)acrylamide] |
| > 1000 | < 100 | C=CC(=O)Nc1cc(CN2CCN(S(C)(=O)=O)CC2)ccc1Nc1nc(Nc2nc(OC)ncc2C)ncc1C(F)(F)F [Compound I-383, N-(2-((2-((2-methoxy-5-methylpyrimidin-4-yl)amino)-5-(trifluoromethyl)pyrimidin-4-yl)amino)-5-((4-(methylsulfonyl)piperazin-1-yl)methyl)phenyl)acrylamide] |
| 101 to 500 | 101 to 500 | C=CC(=O)Nc1cc(OCCN)ccc1Nc1nc(Nc2cc(OC)ncc2C)ncc1C(F)(F)F [Compound I-396, N-(5-(2-aminoethoxy)-2-((2-((2-methoxy-5-methylpyridin-4-yl)amino)-5-(trifluoromethyl)pyrimidin-4-yl)amino)phenyl)acrylamide] |
| 101 to 500 | 101 to 500 | C=CC(=O)Nc1cc(C(=O)N2CCN(S(C)(=O)=O)CC2)ccc1Nc1nc(Nc2cc(OC)ncc2C)ncc1C(F)(F)F [Compound I-401, N-(2-((2-((2-methoxy-5-methylpyridin-4-yl)amino)-5-(trifluoromethyl)pyrimidin-4-yl)amino)-5-(4-(methylsulfonyl)piperazine-1-carbonyl)phenyl)acrylamide] |
| 101 to 500 | 101 to 500 | C=CC(=O)Nc1cc(OCCN2CCN(C(C)=O)CC2)ccc1Nc1nc(Nc2cc(OC)ncc2C)ncc1C(F)(F)F [Compound I-416, N-(5-(2-(4-acetylpiperazin-1-yl)ethoxy)-2-((2-((2-methoxy-5-methylpyridin-4-yl)amino)-5-(trifluoromethyl)pyrimidin-4-yl)amino)phenyl)acrylamide] |
| 501 to 999 | 501 to 999 | C=CC(=O)Nc1cc(C)ccc1Nc1nc(Nc2cc(C(=O)OC)nn2C)ncc1C(F)(F)F [Compound I-418, Methyl 5-((4-((2-acrylamido-4-methylphenyl)amino)-5-(trifluoromethyl)pyrimidin-2-yl)amino)-1-methyl-1H-pyrazole-3-carboxylate] |
| < 100 | < 100 | C=CC(=O)Nc1cc(C)ccc1Nc1nc(Nc2ccnc3ccccc23)ncc1C(F)(F)F [Compound I-379, N-(5-methyl-2-((2-(quinolin-4-ylamino)-5-(trifluoromethyl)pyrimidin-4-yl)amino)phenyl)acrylamide] |
| 101 to 500 | 101 to 500 | C=CC(=O)Nc1cc(C)ccc1Nc1nc(Nc2cc(OCC)ncc2C)ncc1C(F)(F)F [Compound I-358, N-(2-((2-((2-ethoxy-5-methylpyridin-4-yl)amino)-5-(trifluoromethyl)pyrimidin-4-yl)amino)-5-methylphenyl)acrylamide] |
| 101 to 500 | 101 to 500 | C=CC(=O)Nc1cc(C)ccc1Nc1nc(Nc2nc(OC)ncc2C(F)(F)F)ncc1C(F)(F)F [Compound I-355, N-(2-((2-((2-methoxy-5-(trifluoromethyl)pyrimidin-4-yl)amino)-5-(trifluoromethyl)pyrimidin-4-yl)amino)-5-methylphenyl)acrylamide] |
| 101 to 500 | 101 to 500 | C=CC(=O)Nc1cc(C)ccc1Nc1nc(Nc2cc(OC)ncc2Cl)ncc1C(F)(F)F [Compound I-351, N-(2-((2-((5-chloro-2-methoxypyridin-4-yl)amino)-5-(trifluoromethyl)pyrimidin-4-yl)amino)-5-methylphenyl)acrylamide] |
| < 100 | < 100 | C=CC(=O)Nc1cc(CN2CCN(C(=O)c3cccnc3)CC2)ccc1Nc1nc(Nc2cc(OC)ncc2C)ncc1C(F)(F)F [Compound I-389, N-(2-((2-((2-methoxy-5-methylpyridin-4-yl)amino)-5-(trifluoromethyl)pyrimidin-4-yl)amino)-5-((4-nicotinoylpiperazin-1-yl)methyl)phenyl)acrylamide] |
| > 1000 | 501 to 999 | C=CC(=O)Nc1cc(CN2CCN(C(=O)c3cccnc3)CC2)ccc1Nc1nc(Nc2nc(OC)ncc2C)ncc1C(F)(F)F [Compound I-392, N-(2-((2-((2-methoxy-5-methylpyrimidin-4-yl)amino)-5-(trifluoromethyl)pyrimidin-4-yl)amino)-5-((4-nicotinoylpiperazin-1-yl)methyl)phenyl)acrylamide] |
| 501 to 999 | 501 to 999 | C=CC(=O)Nc1cc(C)c(C#N)cc1Nc1nc(NC2CCOCC2)ncc1C(F)(F)F [Compound I-397, N-(4-cyano-5-methyl-2-((2-((tetrahydro-2H-pyran-4-yl)amino)-5-(trifluoromethyl)pyrimidin-4-yl)amino)phenyl)acrylamide] |
| 101 to 500 | 101 to 500 | C=CC(=O)Nc1cc(C)ccc1Nc1nc(Nc2nc(OC)ccc2Cl)ncc1C(F)(F)F [Compound I-360, N-(2-((2-((3-chloro-6-methoxypyridin-2-yl)amino)-5-(trifluoromethyl)pyrimidin-4-yl)amino)-5-methylphenyl)acrylamide] |
| > 1000 | 101 to 500 | C=CC(=O)Nc1cc(CN2CCN(C(C)=O)CC2)ccc1Nc1nc(Nc2nc(OC)ncc2C)ncc1C(F)(F)F [Compound I-382, N-(5-((4-acetylpiperazin-1-yl)methyl)-2-((2-((2-methoxy-5-methylpyrimidin-4-yl)amino)-5-(trifluoromethyl)pyrimidin-4-yl)amino)phenyl)acrylamide] |
| 101 to 500 | 101 to 500 | C=CC(=O)Nc1cc(C)ccc1Nc1nc(Nc2nc(OC)ncc2C#N)ncc1C(F)(F)F [Compound I-346, N-(2-((2-((5-cyano-2-methoxypyrimidin-4-yl)amino)-5-(trifluoromethyl)pyrimidin-4-yl)amino)-5-methylphenyl)acrylamide] |
| 101 to 500 | – | C=CC(=O)Nc1cc(C)ccc1Nc1nc(Nc2nc(OC)ncc2Cl)ncc1C(F)(F)F [Compound I-344, N-(2-((2-((5-chloro-2-methoxypyrimidin-4-yl)amino)-5-(trifluoromethyl)pyrimidin-4-yl)amino)-5-methylphenyl)acrylamide] |

| SMILES | EC50 [1] [nM] | EC50 [2] [nM] |
| --- | --- | --- |
| C=CC(=O)Nc1cc(C)ccc1Nc1nc(Nc2cc(NCCOC)nc(OC)c2)ncc1C(F)(F)F [Compound I-294, N-(2-((2-((2-methoxy-6-((2-methoxyethyl)amino)pyridin-4-yl)amino)-5-(trifluoromethyl)pyrimidin-4-yl)amino)-5-methylphenyl)acrylamide] | < 100 | < 100 |
| C=CC(=O)Nc1cc(C)ccc1Nc1nc(Nc2cc(OC)nc(N3CCN(C(C)=O)CC3)c2)ncc1C(F)(F)F [Compound I-93, N-(2-((2-((2-(4-Acetylpiperazin-1-yl)-6-methoxypyridin-4-yl)amino)-5-(trifluoromethyl)pyrimidin-4-yl)amino)-5-methylphenyl)acrylamide] | < 100 | < 100 |
| C=CC(=O)Nc1ccccc1Nc1nc(Nc2cc(OC)nc(N3CCN(C(C)=O)CC3)c2)ncc1C(F)(F)F [Compound I-92] | < 100 | – |
| C=CC(=O)Nc1cc(C)ccc1Nc1nc(Nc2cc(OC)nc(OC)c2)ncc1C(F)(F)F [Compound I-96] | 101 to 500 | – |
| C=CC(=O)Nc1cc(C)ccc1Nc1nc(Nc2cc(N[C@H]3CC[C@](C)(O)CC3)nc(OC)c2)ncc1C(F)(F)F [Compound I-327, N-(2-((2-((2-((trans-4-hydroxy-4-methylcyclohexyl)amino)-6-methoxypyridin-4-yl)amino)-5-(trifluoromethyl)pyrimidin-4-yl)amino)-5-methylphenyl)acrylamide] | < 100 | – |
| C=CC(=O)Nc1cc(C)ccc1Nc1nc(Nc2cc(C(C)=O)ccc2C)ncc1C(F)(F)F [Compound I-84, N-(2-((2-((5-Acetyl-2-methylphenyl)amino)-5-(trifluoromethyl)pyrimidin-4-yl)amino)-5-methylphenyl)acrylamide] | – | < 100 |
